Where “and” joins values, the source holds several entries; their conditions need not be identical. Equal values may be shown once.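 How tested: cells in 96-well plates exposed to compound for 48 hours at five concentrations. Here, GI50 denotes the concentration required for 50% inhibition of growth. At the TGI there is no net growth.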
Columns and labels:
Assay in all cases: growth of human tumour cells (NCI), 48 h
HCT-116 colon = tested on: HCT-116 colon
HOP-62 NSCLC = tested on: HOP-62 NSCLC
NCI-H23 lung = tested on: NCI-H23 lung
OVCAR-3 ovarian = tested on: OVCAR-3 ovarian
RXF 393 renal = tested on: RXF 393 renal
TK-10 renal = tested on: TK-10 renal
UACC-62 melanoma = tested on: UACC-62 melanoma
HCC-2998 colon = tested on: HCC-2998 colon
LOX IMVI melanoma = tested on: LOX IMVI melanoma
MDA-MB-231 breast = tested on: MDA-MB-231 breast

Row | Compound | TGI (HCT-116 colon) | TGI (HOP-62 NSCLC) | TGI (NCI-H23 lung) | TGI (OVCAR-3 ovarian) | TGI (RXF 393 renal) | TGI (TK-10 renal) | TGI (UACC-62 melanoma) | TGI (HCC-2998 colon) | TGI (LOX IMVI melanoma) | GI50 (HCT-116 colon) | GI50 (HOP-62 NSCLC) | GI50 (LOX IMVI melanoma) | GI50 (MDA-MB-231 breast) | TGI (MDA-MB-231 breast) | GI50 (NCI-H23 lung) | GI50 (OVCAR-3 ovarian) | GI50 (TK-10 renal) | GI50 (UACC-62 melanoma) | GI50 (RXF 393 renal) | GI50 (HCC-2998 colon)
1 | N=c1nnc(=O)c2c(s1)-n1ncc(C(=O)O)c1NN2 | > 100 µM | > 100 µM | > 100 µM | > 100 µM | > 100 µM | > 100 µM | > 100 µM | – | – | – | – | – | – | – | – | – | – | – | – | –
2 | CN(C)C(N)=NC#N | > 100 µM | > 100 µM | > 100 µM | > 100 µM | 74.8 µM | > 100 µM | > 100 µM | > 100 µM | – | – | – | – | – | – | – | – | – | – | – | –
3 | C(CCC[Te][Te]CCCCCCOC1CCCCO1)CCOC1CCCCO1 (centres undefined) | 55.8 µM | 33.7 µM | 31.1 µM | – | – | 95.1 µM | 23.6 µM | 27.9 µM | 35.1 µM | – | – | – | – | – | – | – | – | – | – | –
4 | O=S(=O)(NCC1CCC(CNc2ccc(Cl)cc2)CC1)c1ccc(-c2ccccc2)cc1 (centres undefined) | > 50 µM | > 50 µM | > 50 µM | > 50 µM | – | > 50 µM | > 50 µM | – | > 50 µM | 32.2 µM | > 50 µM | 45.7 µM | 15.7 µM | > 50 µM | 20.6 µM | 10.7 µM | 22.8 µM | > 50 µM | – | –
5 | CN1CCCN(C)C1c1cc([N+](=O)[O-])ccc1O | > 100 µM | > 100 µM | > 100 µM | > 100 µM | > 100 µM | > 100 µM | 44.3 µM | – | > 100 µM | – | – | – | – | > 100 µM | – | – | – | – | – | –
6 | CCC(=O)C(C)C1=Nc2nnc(CCCCCCCc3nnc4n3C(=O)C(C(C)C(=O)CC)=N4)n2C1=O (centres undefined) | > 100 µM | > 100 µM | > 100 µM | > 100 µM | > 100 µM | > 100 µM | > 100 µM | > 100 µM | > 100 µM | – | – | – | – | – | – | – | – | – | – | –
7 | C(=N\OCc1ccccc1)/c1ncccc1C1OCCO1 | > 100 µM | > 100 µM | > 100 µM | > 100 µM | > 100 µM | > 100 µM | > 100 µM | – | > 100 µM | – | – | – | – | – | – | – | – | – | – | –
8 | CC1(C)OC(=O)C=C([O-])O1.CC1(C)OC(=O)C=C([O-])O1.O=S(=O)([O-])c1ccc([O-])c2ncccc12.O=S(=O)([O-])c1ccc([O-])c2ncccc12.[Ti+4] | > 100 µM | 73.1 µM | > 100 µM | > 100 µM | > 100 µM | > 100 µM | > 100 µM | – | > 100 µM | 41.8 µM | 26.3 µM | 46.7 µM | – | – | > 100 µM | 86.4 µM | > 100 µM | 79.9 µM | > 100 µM | –
9 | Cc1nc2sc(C(=O)Nc3cccc4ccccc34)c(N)c2cc1C(=O)c1ccccc1 | > 50 µM | > 50 µM | > 50 µM | – | – | > 50 µM | > 50 µM | > 50 µM | > 50 µM | 1.68 µM | 2.53 µM | 2.56 µM | 2.19 µM | > 50 µM | 3.55 µM | – | > 50 µM | 2.42 µM | – | 1.52 µM
10 | CCOC(=O)C(CO)c1nc2c([nH]c1=O)c(=O)n(C)c(=O)n2C (centres undefined) | > 100 µM | > 100 µM | > 100 µM | > 100 µM | – | > 100 µM | > 100 µM | > 100 µM | > 100 µM | – | – | – | – | > 100 µM | – | – | – | – | – | –
11 | CC(C)c1ccc(/C(C(=O)O)=C(\O)C(=O)O)cc1 | > 100 µM | > 100 µM | > 100 µM | > 100 µM | > 100 µM | > 100 µM | > 100 µM | – | > 100 µM | – | – | – | – | > 100 µM | – | – | – | – | – | –
12 | COc1ccc(C(N)=O)cc1N=NN(C)C | > 100 µM | > 100 µM | > 100 µM | > 100 µM | – | > 100 µM | > 100 µM | > 100 µM | > 100 µM | – | – | – | – | – | – | – | – | – | – | –
13 | COc1cccc(C(=O)N2CCc3ccccc32)c1OC | > 100 µM | > 100 µM | > 100 µM | > 100 µM | > 100 µM | > 100 µM | > 100 µM | > 100 µM | > 100 µM | – | – | – | – | – | – | – | – | – | – | –
14 | CCNC(=O)C#CC(=O)NCC | > 10 µM and 47.7 µM | > 100 µM | > 100 µM | > 100 µM | > 100 µM | > 100 µM | > 100 µM | > 100 µM | > 100 µM | > 10 µM | – | > 10 µM | – | – | > 10 µM | > 10 µM | > 10 µM | > 10 µM | > 100 µM | > 10 µM
15 | N=C(N=C(N)N)N1CCN(c2ccncc2)CC1 | > 1000 µM | > 1000 µM | > 1000 µM | > 1000 µM | – | > 1000 µM | > 1000 µM | > 1000 µM | > 1000 µM | > 1000 µM | > 1000 µM | > 1000 µM | > 1000 µM | > 1000 µM | > 1000 µM | > 1000 µM | > 1000 µM | > 1000 µM | – | > 1000 µM
16 | CCCCCCCC(=O)OC(CBr)COC(=O)C(C)(C)C (centres undefined) | > 100 µM | > 100 µM | > 100 µM | > 100 µM | > 100 µM | > 100 µM | > 100 µM | > 100 µM | > 100 µM | – | – | – | – | – | – | – | – | – | – | –
17 | O=c1cc2ccccc2nn1Cc1ccccc1Cl | > 100 µM | > 100 µM | > 100 µM | > 100 µM | – | > 100 µM | > 100 µM | > 100 µM | > 100 µM | – | – | – | – | – | – | – | – | – | – | –
18 | Cc1c(C(=O)NCCO)[n+](=O)c2cc(Cl)ccc2n1[O-] | > 100 µM | > 100 µM | > 100 µM | > 100 µM | > 100 µM | > 100 µM | > 100 µM | > 100 µM | > 100 µM | – | – | – | – | – | – | – | – | – | – | –
19 | NC(=O)c1cc(Br)cc(C2CCCCC2)c1O | 25 µM | 28.4 µM | 30.8 µM | 25.9 µM | 22 µM | 28.1 µM | 23.9 µM | – | 26 µM | 12.5 µM | 14.1 µM | 13.2 µM | 12.1 µM | 25.3 µM | 15.3 µM | 13.2 µM | 13.4 µM | 11.5 µM | 6.44 µM | –
20 | Cc1ccc(S(=O)(=O)NC(=O)NC23CC4CC(CC(F)(C4)C2)C3)cc1 | > 100 µM | > 100 µM | > 100 µM | > 100 µM | > 100 µM | > 100 µM | > 100 µM | > 100 µM | > 100 µM | – | – | – | – | – | – | – | – | – | – | –

— PubChem BioAssay (NCI)
